Here are results for 24 molecules from US11787780B2 (CORCEPT THERAPEUTICS INCORPORATED, priority 2020, dated 2023).

The test system of assay [1] is induction of TAT by dexamethasone in HepG2 cells. Nature of the assay: Hep G2 TAT assay (inhibition of dexamethasone-induced TAT). Type of assay: cell-based, human. The note with it: challenge of 100 nM dexamethasone, IC50 converted to Ki by Cheng and Prusoff equation.
The target of assay [2] is glucocorticoid receptor (GR) recombinant ligand binding domain (LBD) (Homo sapiens (Human), UniProt P04150). Nature of the assay: GR binding fluorescence polarisation (FP) assay. To be noted: displacement of fluorescently tagged ligand. How it is done: Binding of test compounds to the glucocorticoid receptor (GR) is determined using a fluorescence polarisation (FP) assay utilising a recombinant ligand binding domain (LBD) of GR. The test compounds are assessed by their ability to displace a fluorescently tagged ligand and detection of the resulting decrease in fluorescence polarisation.
glucocorticoid receptor (GR) recombinant ligand binding domain (LBD), sequence (P04150 524-758): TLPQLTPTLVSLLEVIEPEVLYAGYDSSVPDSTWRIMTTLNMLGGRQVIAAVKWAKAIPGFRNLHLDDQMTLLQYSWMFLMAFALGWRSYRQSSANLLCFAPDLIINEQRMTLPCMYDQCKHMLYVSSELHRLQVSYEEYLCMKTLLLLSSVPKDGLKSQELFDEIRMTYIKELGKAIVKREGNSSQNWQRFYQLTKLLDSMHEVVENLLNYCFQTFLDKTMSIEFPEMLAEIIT

In turn, `Cc1cc2c(cnn2-c2ccc(=O)n(C)c2)cc1C1(Cc2ccccc2)CCN(S(=O)(=O)c2ccc(F)cc2)C1` (stereo not drawn) [Example 298, 5-(5-(3-benzyl-1-((4-fluorophenyl)sulfonyl)pyrrolidin-3-yl)-6-methyl-1H-indazol-1-yl)-1-methylpyridin-2(1H)-one] returned a Ki in assay [1] of 37 nM. The IC50 in assay [2] came to 3.6 nM.
For `Cc1cc2c(cnn2-c2ccc(=O)n(C)c2)cc1C1(Cc2ccccc2)CCN(S(=O)(=O)c2ccccc2)C1` (stereo not drawn) [Example 294, 5-(5-(3-benzyl-1-(phenylsulfonyl)pyrrolidin-3-yl)-6-methyl-1H-indazol-1-yl)-1-methylpyridin-2(1H)-one], the affinity in assay [1] corresponds to a Ki of 41 nM. The IC50 in assay [2] is 4 nM.
The like results for `Cc1cc2c(cnn2-c2ccc(F)cc2)cc1C1(Cc2ccccc2)CCN(S(=O)(=O)C2CCOCC2)C1` (stereo not drawn) [Example 156] were, in that order, 36 nM and 11 nM.
With `Cc1cncc(S(=O)(=O)N2CCC(Cc3ccccc3)(c3cc4cnn(-c5ccc(=O)n(C)c5)c4cc3C)C2)c1` (stereo not drawn) [Example 309, 5-(5-(3-benzyl-1-((5-methylpyridin-3-yl)sulfonyl)pyrrolidin-3-yl)-6-methyl-1H-indazol-1-yl)-1-methylpyridin-2(1H)-one], the affinity in assay [1] corresponds to a Ki of 66 nM. For the same molecule, the IC50 in assay [2] was 11 nM.
`CCn1cc(-n2ncc3cc(C4(Cc5ccccc5)CCN(S(=O)(=O)c5cnn(C)n5)C4)c(C)cc32)cn1` (stereo not drawn) [Example 258, 5-(3-benzyl-1-((2-methyl-2H-1,2,3-triazol-4-yl)sulfonyl)pyrrolidin-3-yl)-1-(1-ethyl-1H-pyrazol-4-yl)-6-methyl-1H-indazole] had a Ki in assay [1] of 76 nM. In addition, the IC50 in assay [2] was found to be 31 nM.
Molecule `Cc1cc2c(cnn2-c2ccc(=O)n(C)c2)cc1C1(Cc2ccccc2)CCN(S(=O)(=O)c2cn(C)c(C)n2)C1` (stereo not drawn) [Example 288] displayed a Ki in assay [1] of 110 nM. Also, the concentration for half-maximal inhibition (IC50) in assay [2] is 33 nM.
Turning to `Cc1cc2c(cnn2-c2ccc(F)cc2)cc1C1(Cc2ccccc2)CCN(Cc2ccccc2)C1=O` (stereo not drawn) [Example 337, 1,3-dibenzyl-3-(1-(4-fluorophenyl)-6-methyl-1H-indazol-5-yl)pyrrolidin-2-one], in assay [1], the Ki was 110 nM. Besides, in assay [2], the IC50 turned out to be 250 nM.
`Cc1cc2c(cnn2-c2ccc(F)cc2)cc1C1(CC#CC2CC2)CCN(S(=O)(=O)c2cnn(C)c2)C1` (stereo not drawn) [Example 221, 5-(3-(3-cyclopropylprop-2-yn-1-yl)-1-((1-methyl-1H-pyrazol-4-yl)sulfonyl)pyrrolidin-3-yl)-1-(4-fluorophenyl)-6-methyl-1H-indazole] displayed a Ki in assay [1] of 45 nM. For the same molecule, in assay [2], the IC50 was found to be 56 nM.
In assay [1], `CC(=O)N1CCC(Cc2ccccc2)(c2cc3cnn(-c4ccc(F)cc4)c3cc2C)C1` (stereo not drawn) [Example 190, 1-(3-benzyl-3-(1-(4-fluorophenyl)-6-methyl-1H-indazol-5-yl)pyrrolidin-1-yl)ethan-1-one] yielded a Ki of 55 nM. In addition, in assay [2], the IC50 turned out to be 5 nM.
On the same counts, the results for `CS(=O)(=O)N1CC=C(c2cc3cnn(-c4ccc(F)cc4)c3cc2Cl)CC1` [Example 142] are 715 nM and 429 nM.
Turning to `Cc1cc2c(cnn2-c2cc(C)c(=O)n(C)c2)cc1C1(Cc2ccccc2)CCN(S(=O)(=O)c2ccc(F)c(F)c2)C1` (stereo not drawn) [Example 271, 5-(5-(3-benzyl-1-((3,4-difluorophenyl)sulfonyl)pyrrolidin-3-yl)-6-methyl-1H-indazol-1-yl)-1,3-dimethylpyridin-2(1H)-one], the Ki in assay [1] is 55 nM. Moreover, the IC50 in assay [2] was determined as 20 nM.
Regarding `CCCn1cc(S(=O)(=O)N2C[C@H](C)N(c3ccc4c(cnn4-c4ccc(F)cc4)c3)C[C@@H]2C)cn1` [Example 61], the Ki in assay [1] amounted to 205 nM. Further, the IC50 in assay [2] amounted to 25 nM.
Turning to `Cc1cc2c(cnn2-c2ccn(C)n2)cc1C1(Cc2ccccc2)CCN(S(=O)(=O)c2cnn(C)n2)C1` (stereo not drawn) [Example 259, 5-(3-benzyl-1-((2-methyl-2H-1,2,3-triazol-4-yl)sulfonyl)pyrrolidin-3-yl)-6-methyl-1-(1-methyl-1H-pyrazol-3-yl)-1H-indazole], the Ki in assay [1] turned out to be 540 nM. Moreover, the IC50 in assay [2] is 180 nM.
On the same counts, the results for `CCCn1cc(S(=O)(=O)N2CCC(Cc3ccccc3)(c3cc4cnn(-c5ccc(F)cc5)c4cc3C(C)C)C2)cn1` (stereo not drawn) [Example 165] are 37 nM and 72 nM.
Molecule `Cc1cc2c(cnn2-c2ccc(F)cc2)cc1C1(Cc2ccc(C(F)F)nc2)CCN(S(=O)(=O)c2cnn(C)c2)C1` (stereo not drawn) [Example 171] displayed a Ki in assay [1] of 171 nM. Besides, the IC50 in assay [2] stood at 67 nM.
In the case of `Cc1cc2c(cnn2-c2ccc(F)cc2)cc1N1CCN(C(=O)c2ccc(F)c(F)c2)C2(CC2)C1` [Example 101], in assay [1], the Ki worked out at 823 nM. Also, the IC50 in assay [2] came out at 118 nM.
In assay [1], `Cc1cc2c(cnn2-c2ccc(=O)n(C)c2)cc1C1(Cc2ccccc2)CCN(S(=O)(=O)c2cc(F)ccc2F)C1` (stereo not drawn) [Example 316, 5-(5-(3-benzyl-1-((2,5-difluorophenyl)sulfonyl)pyrrolidin-3-yl)-6-methyl-1H-indazol-1-yl)-1-methylpyridin-2(1H)-one] gave a Ki of 32 nM. Also, in assay [2], the IC50 stood at 12 nM.
In turn, `Cc1cc2c(cnn2-c2ccc(=O)n(C)c2)cc1C1(Cc2ccc(F)cc2)CCN(S(=O)(=O)c2cnn(C)c2)C1` (stereo not drawn) [Example 323, 5-(5-(3-(4-fluorobenzyl)-1-((1-methyl-1H-pyrazol-4-yl)sulfonyl)pyrrolidin-3-yl)-6-methyl-1H-indazol-1-yl)-1-methylpyridin-2(1H)-one] returned a Ki in assay [1] of 97 nM. For the same molecule, the IC50 in assay [2] was found to be 12 nM.
Turning to `CCn1cc(S(=O)(=O)N2CCC(Cc3ccc(F)cc3)(c3cc4cnn(-c5ccc(F)cc5)c4cc3OC)C2)cn1` (stereo not drawn) [Example 217, 5-(1-((1-ethyl-1H-pyrazol-4-yl)sulfonyl)-3-(4-fluorobenzyl)pyrrolidin-3-yl)-1-(4-fluorophenyl)-6-methoxy-1H-indazole], the Ki in assay [1] turned out to be 14 nM. In assay [2], the IC50 turned out to be 17 nM.
In assay [1], `Cc1cc2c(cnn2-c2ccc(F)cc2)cc1C1(Cc2ccccc2)CCN(S(=O)(=O)c2cncs2)C1` (stereo not drawn) [Example 154] showed a Ki of 14 nM. Also, in assay [2], the IC50 was determined as 269 nM.
On to `CCCn1cc(S(=O)(=O)N2CCC(Cc3ccccc3)(c3cc4cnn(-c5ccc(F)cc5)c4cc3OC)C2)cn1` (stereo not drawn) [Example 162], for which, in assay [1], the Ki came to 16 nM. For the same molecule, in assay [2], the IC50 stood at 18 nM.
On to `Cc1cc2c(cnn2-c2cc(C)c(=O)n(C)c2)cc1C1(Cc2ccccc2)CCN(S(=O)(=O)c2cnn(C)n2)C1` (stereo not drawn) [Example 237, 5-(5-(3-benzyl-1-((2-methyl-2H-1,2,3-triazol-4-yl)sulfonyl)pyrrolidin-3-yl)-6-methyl-1H-indazol-1-yl)-1,3-dimethylpyridin-2(1H)-one], for which the affinity in assay [1], expressed as Ki, was 22 nM. For the same molecule, the IC50 in assay [2] was 4.8 nM.
For `Cc1cc2c(cnn2-c2ccc(F)cc2)cc1N1CCN(S(=O)(=O)c2cnn(CC3CC3)c2)[C@H](C)C1` [Example 43], the Ki in assay [1] is 467 nM. The IC50 in assay [2] was 95 nM.
Turning to `Cc1cc2c(cnn2-c2ccc(F)cc2)cc1C1CCN(C(=O)NC(C)C)CC1` [Example 32, 4-(1-(4-fluorophenyl)-6-methyl-1H-indazol-5-yl)-N-isopropylpiperidine-1-carboxamide], in assay [1], the Ki is 400 nM. The IC50 in assay [2] came to 70 nM.
